Results published in ChEMBL document CHEMBL1201862, “PubChem BioAssay data set” (2004).
Where a name gives a salt, the structure may show the parent alone. Calls of active or inactive are those of the source.

Tests used:
[1] = target: T1, Adenosylmethionine-8-amino-7-oxononanoate aminotransferase (Mycobacterium tuberculosis, UniProt P9WQ81); assay: Mycobacterium tuberculosis BioA enzyme inhibitor Measured in Biochemical System Using Plate Reader - 2163-02_Inhibitor_Dose_CherryPick_Activity.; assay type: functional, Mycobacterium tuberculosis UT205
T1 sequence (P9WQ81 whole entry): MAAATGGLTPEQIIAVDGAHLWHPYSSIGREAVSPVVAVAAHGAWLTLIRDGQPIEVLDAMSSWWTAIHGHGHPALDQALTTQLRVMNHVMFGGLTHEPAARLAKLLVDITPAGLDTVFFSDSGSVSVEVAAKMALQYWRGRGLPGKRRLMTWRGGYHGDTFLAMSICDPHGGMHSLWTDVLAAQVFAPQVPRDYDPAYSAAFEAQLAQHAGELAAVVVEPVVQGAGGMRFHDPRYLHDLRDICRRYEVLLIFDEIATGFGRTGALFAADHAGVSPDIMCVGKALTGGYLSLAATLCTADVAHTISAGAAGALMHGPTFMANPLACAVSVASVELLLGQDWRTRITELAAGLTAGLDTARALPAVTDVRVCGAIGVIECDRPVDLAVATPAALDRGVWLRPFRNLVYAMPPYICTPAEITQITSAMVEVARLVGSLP

[2] = target: T2, Trace amine-associated receptor 1 (Homo sapiens, UniProt Q96RJ0); assay: Counterscreen for agonists of the human trace amine associated receptor 1 (hTAAR1): Fluorescence-based cell-based high throughput dose response assay to identify hTAAR1 agonist that also desensitize TAAR1 receptor response.; assay type: functional
T2 sequence (Q96RJ0 whole entry): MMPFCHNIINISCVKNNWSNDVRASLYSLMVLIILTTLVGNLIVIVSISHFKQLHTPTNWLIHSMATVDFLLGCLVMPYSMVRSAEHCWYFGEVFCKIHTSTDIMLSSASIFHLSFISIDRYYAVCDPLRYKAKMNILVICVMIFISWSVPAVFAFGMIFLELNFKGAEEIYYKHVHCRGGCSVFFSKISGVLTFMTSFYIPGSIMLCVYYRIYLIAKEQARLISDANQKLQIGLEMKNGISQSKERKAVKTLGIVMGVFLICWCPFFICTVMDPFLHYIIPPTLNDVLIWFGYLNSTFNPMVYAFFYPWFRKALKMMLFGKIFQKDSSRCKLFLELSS

cells [3] = assay type: functional, cell-based
cells [4] = assay type: functional, cell-based; remark: listed apart in the source
[5] = target: T2, Trace amine-associated receptor 1; assay: Fluorescence-based cell-based high throughput dose response assay to identify agonists of the human trace amine associated receptor 1 (TAAR1).; assay type: functional
[6] = target: T3, Fructose-bisphosphate aldolase (Mycobacterium tuberculosis, UniProt P9WQA3); assay: Fluorescence-based biochemical high throughput dose response assay for inhibitors of the fructose-bisphosphate aldolase (FBA) of M. tuberculosis.; assay type: functional
T3 sequence (P9WQA3 whole entry): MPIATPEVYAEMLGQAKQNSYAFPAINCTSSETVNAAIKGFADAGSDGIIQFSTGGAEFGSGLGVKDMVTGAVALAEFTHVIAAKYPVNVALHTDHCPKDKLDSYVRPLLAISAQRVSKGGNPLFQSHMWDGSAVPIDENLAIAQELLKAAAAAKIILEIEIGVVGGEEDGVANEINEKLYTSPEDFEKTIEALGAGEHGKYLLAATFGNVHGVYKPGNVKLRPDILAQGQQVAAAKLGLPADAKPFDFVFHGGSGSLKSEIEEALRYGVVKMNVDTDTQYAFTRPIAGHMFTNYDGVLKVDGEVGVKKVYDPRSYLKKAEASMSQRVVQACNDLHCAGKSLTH

H9c2 = assay: cells; assay type: functional, cell-based; settings: Rattus norvegicus, H9c2, Myocardium;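 note: confirmatory concentration-response retest of ultra-high-throughput screening hits for modulation of myocardial damage; cell death induced by hydrogen peroxide oxidative stress; compound pretreatment for 60 min then peroxide exposure for 2 h; potency is for protecting the cells against peroxide damage rather than for killing them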
[7] = target: T4, Corticotropin-releasing factor receptor 2/Corticotropin-releasing factor-binding protein (Homo sapiens, UniProt P24387+Q13324); assay: Dose Response confirmation of uHTS hits for small molecule antagonists of the CRF-binding protein and CRF-R2 receptor complex.; assay type: functional; settings: read-out: IC50_Mean
T4 sequence (Q13324 whole entry): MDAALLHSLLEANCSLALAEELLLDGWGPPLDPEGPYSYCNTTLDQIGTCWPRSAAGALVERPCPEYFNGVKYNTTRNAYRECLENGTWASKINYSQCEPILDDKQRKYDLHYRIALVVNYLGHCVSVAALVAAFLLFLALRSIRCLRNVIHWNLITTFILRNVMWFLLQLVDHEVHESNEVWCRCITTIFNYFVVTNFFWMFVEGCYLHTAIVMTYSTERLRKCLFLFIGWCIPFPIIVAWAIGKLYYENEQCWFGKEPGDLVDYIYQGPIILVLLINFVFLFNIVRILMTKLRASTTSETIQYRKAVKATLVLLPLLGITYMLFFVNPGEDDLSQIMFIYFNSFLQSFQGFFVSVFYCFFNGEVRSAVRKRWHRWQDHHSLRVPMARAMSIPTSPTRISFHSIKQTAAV
T4 sequence (P24387 whole entry): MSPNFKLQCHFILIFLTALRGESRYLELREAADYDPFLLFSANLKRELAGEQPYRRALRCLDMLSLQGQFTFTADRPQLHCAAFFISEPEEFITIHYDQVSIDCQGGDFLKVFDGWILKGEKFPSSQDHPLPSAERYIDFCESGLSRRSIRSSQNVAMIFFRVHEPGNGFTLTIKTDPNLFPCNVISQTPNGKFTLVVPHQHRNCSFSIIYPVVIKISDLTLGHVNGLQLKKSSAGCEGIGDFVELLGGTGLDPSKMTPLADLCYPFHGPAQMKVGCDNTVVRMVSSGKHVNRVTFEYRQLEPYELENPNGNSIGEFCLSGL

Streptococcus = assay: GAS UMAA2166 growth inhibition – luminescence, BacTiterGlo, counter-screen for streptokinase expression inhibitor project, dose response (AID 1915); assay type: functional, organism-based;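 note: potency for reduction of bacterial viability or growth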
[8] = test system: Streptococcus sp. 'group A'; assay: Streptococcus pyogenes SK(-)GAS viability under kanamycin – luminescence, BacTiterGlo, confirmation, counter-screen for streptokinase expression inhibitor project, dose response (AID 1900); assay type: functional, organism-based
Streptokinase A = target: T5, Streptokinase A (Streptococcus pyogenes serotype M1, UniProt P10520); assay: viability-normalized secreted streptokinase activity reduction – plasminogen activation absorbance, OD405, dose response (AID 1914); assay type: functional, Streptococcus pyogenes M1 GAS;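 note: secreted streptokinase activity via plasminogen activation per viability signal from cell pellet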
T5 sequence (P10520 whole entry): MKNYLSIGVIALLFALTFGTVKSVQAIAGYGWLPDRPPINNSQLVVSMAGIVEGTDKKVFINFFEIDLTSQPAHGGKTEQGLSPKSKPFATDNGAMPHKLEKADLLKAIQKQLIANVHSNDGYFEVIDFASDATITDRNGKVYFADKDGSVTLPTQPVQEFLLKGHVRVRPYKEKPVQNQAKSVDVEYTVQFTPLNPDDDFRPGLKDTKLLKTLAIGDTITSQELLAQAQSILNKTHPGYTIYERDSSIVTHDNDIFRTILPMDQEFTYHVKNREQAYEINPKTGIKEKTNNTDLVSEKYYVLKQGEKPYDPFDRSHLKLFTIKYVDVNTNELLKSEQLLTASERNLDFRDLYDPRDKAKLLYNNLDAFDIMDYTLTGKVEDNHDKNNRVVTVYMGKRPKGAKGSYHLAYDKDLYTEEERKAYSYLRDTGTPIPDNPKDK

[9] = blockers of CRF-binding protein–CRF-R2 complex – cell-based, uHTS hits, 384-well, dose response (AID 651639); assay type: functional, Homo sapiens; settings: read-out: IC50_Mean
[10] = target: T4, Corticotropin-releasing factor receptor 2/Corticotropin-releasing factor-binding protein; assay: activators of CRF receptor 2 with binding protein – uHTS hits, confirmation (AID 602473); assay type: functional; settings: read-out: EC50_Mean
[11] = target: T6, Small ubiquitin-related modifier 1 (Homo sapiens, UniProt P63165); assay: SUMO1 protein interaction blockers, potency – biochemical, fluorescence polarization, uHTS hits, dose response (AID 624382); assay type: functional; settings: read-out: IC50_Mean
[12] = target: 72 kDa type IV collagenase (Homo sapiens, UniProt P08253); assay: Dose Response validation of uHTS RPN11 inhibitor hits using a MMP-2 Fluorescence assay.; assay type: functional
[13] = target: 26S proteasome non-ATPase regulatory subunit 14 (Homo sapiens, UniProt O00487); assay: inhibition of proteasome subunit RPN11 – biochemical, fluorescence polarization, uHTS hits, confirmation (AID 602368); assay type: functional
Prothrombin = Prothrombin (Bos taurus, UniProt P00735); assay: thrombin protease inhibitors – biochemical, fluorescence polarization, uHTS hits, dose response (AID 602369); assay type: functional
[14] = target: T6, Small ubiquitin-related modifier 1; assay: SUMO1 protein-protein binding blockers, potency – biochemical, FRET, dose response (AID 624383); assay type: functional; settings: read-out: IC50_Mean
[15] = target: T7, DNA repair protein RAD52 homolog (Homo sapiens, UniProt P43351); assay type: functional, biochemical
T7 sequence (P43351 whole entry): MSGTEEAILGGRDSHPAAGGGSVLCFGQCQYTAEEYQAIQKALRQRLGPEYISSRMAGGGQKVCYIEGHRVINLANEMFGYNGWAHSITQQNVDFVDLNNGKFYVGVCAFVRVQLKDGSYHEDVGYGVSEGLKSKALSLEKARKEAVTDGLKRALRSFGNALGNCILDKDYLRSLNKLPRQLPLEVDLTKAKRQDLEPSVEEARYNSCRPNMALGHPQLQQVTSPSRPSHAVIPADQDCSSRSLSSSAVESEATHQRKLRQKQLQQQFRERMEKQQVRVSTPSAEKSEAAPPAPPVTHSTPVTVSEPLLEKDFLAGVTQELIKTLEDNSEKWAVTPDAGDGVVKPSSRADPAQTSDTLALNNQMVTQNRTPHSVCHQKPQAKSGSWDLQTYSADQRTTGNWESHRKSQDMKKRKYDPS

[16] = Luminescence Cell-Based Dose Response HTS to Identify Inhibitors of 5'UTR Stem-Loop Driven Prion Protein mRNA Translation in H4 Neuroglioblastoma Cells. [Related pubchem assays: 1827 (Project Summary), 1813 (Primary HTS)]; assay type: functional
[17] = alpha-synuclein stem-loop luciferase translation blockers – H4 neuroglioma cells, luminescence, confirmation (AID 1988); assay type: functional, cell-based
[18] = luciferase reporter signal suppression in cells – H4 neuroglioma cells, luminescence, dose response (AID 1990); assay type: functional, cell-based

T6 sequence (P63165 whole entry): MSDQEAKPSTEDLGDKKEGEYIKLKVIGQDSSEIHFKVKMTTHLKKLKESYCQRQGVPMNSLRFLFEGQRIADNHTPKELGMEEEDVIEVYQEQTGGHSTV
72 kDa type IV collagenase, sequence (P08253 whole entry): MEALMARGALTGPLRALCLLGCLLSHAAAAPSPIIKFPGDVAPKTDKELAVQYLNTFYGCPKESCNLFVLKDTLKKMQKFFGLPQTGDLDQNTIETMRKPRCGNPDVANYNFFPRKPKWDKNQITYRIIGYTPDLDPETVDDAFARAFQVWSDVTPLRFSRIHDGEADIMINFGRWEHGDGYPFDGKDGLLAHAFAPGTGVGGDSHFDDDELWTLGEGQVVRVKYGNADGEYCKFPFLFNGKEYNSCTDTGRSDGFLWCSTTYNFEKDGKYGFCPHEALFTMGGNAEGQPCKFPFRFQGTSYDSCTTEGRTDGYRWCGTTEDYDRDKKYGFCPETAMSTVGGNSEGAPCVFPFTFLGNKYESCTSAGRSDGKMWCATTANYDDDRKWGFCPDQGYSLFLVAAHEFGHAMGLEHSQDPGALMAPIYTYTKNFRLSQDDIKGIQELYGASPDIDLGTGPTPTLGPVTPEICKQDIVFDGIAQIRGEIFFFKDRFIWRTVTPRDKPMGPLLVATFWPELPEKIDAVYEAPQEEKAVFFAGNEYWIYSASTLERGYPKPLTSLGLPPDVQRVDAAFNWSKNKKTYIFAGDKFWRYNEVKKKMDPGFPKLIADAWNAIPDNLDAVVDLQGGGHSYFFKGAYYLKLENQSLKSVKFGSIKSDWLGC
26S proteasome non-ATPase regulatory subunit 14, sequence (O00487 whole entry): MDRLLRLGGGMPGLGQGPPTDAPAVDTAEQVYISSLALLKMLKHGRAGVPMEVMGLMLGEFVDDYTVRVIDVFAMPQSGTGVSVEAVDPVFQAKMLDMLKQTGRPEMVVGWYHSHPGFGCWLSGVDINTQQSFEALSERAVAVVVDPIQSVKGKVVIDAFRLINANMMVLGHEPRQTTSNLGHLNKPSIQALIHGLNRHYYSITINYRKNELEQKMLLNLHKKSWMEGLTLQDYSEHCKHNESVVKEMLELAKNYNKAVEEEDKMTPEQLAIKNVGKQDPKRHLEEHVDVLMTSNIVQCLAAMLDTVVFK

In the case of `CNC(=O)C[C@H]1CC[C@@H]2[C@H](COC[C@@H](O)CN2C(=O)Nc2ccc3c(c2)OCO3)O1`, the AC50 [1] is reported as 10.4 µM (active).

For `COc1ccc(C2c3c(oc4ccc(Cl)cc4c3=O)C(=O)N2CCN2CCOCC2)cc1` (stereo not given), the AC50 [1] was 3.7 µM (active).

For `O=C(Cc1nnc(O)nc1O)N/N=C/c1ccccc1`, the IC50 [2] was > 29.9 µM (inactive), the IC50 (cells [3]) was > 29.9 µM (inactive) and the EC50 (cells [4]) was > 29.9 µM (inactive). For the same compound, the EC50 [5] was > 29.9 µM (inactive).

In the case of `O=C(c1ccc(S(=O)(=O)Nc2ccccc2F)cc1)N1CCN(c2ccccc2O)CC1`, the AC50 [1] is reported as 3.62 µM (active).

In the case of `c1ccc2c(c1)CCCC2C1=NCCN1` (stereo not given) [TETRAHYDROZOLINE HYDROCHLORIDE], the IC50 [2] is reported as 0.157 µM (active), the IC50 (cells [3]) is reported as > 29.9 µM (inactive) and the EC50 (cells [4]) is reported as > 29.9 µM (inactive). For the same compound, the EC50 [5] was 0.154 µM (active).

For `CC1(C)CC(=O)C2=C(C1)N(CCN1CCOCC1)C1=C(C(=O)CC(C)(C)C1)C2c1ccc(Cl)cc1`, the IC50 [6] was 2.33 µM (active) and the IC50 (H9c2) was > 79 µM (inactive).

In the case of `Cc1ccccc1-c1cc2nc(-c3ccc([N+](=O)[O-])cc3)cc(O)n2n1`, the IC50 [7] is reported as 4.74 µM (active), the EC50 (Streptococcus) is reported as 60.1 µM (active) and the EC50 [8] is reported as 9.23 µM (active). For the same compound, the EC50 (Streptokinase A) was > 150 µM (not active), the IC50 [9] was 3.21 µM (active) and the EC50 [10] was > 53 µM (inactive).

In the case of `Cc1nn(S(=O)(=O)c2cccs2)c(C)c1Sc1ccc([N+](=O)[O-])cc1`, the IC50 [7] is reported as < 0.368 µM (active), the IC50 [9] is reported as 12.8 µM (active) and the EC50 [10] is reported as > 53 µM (inactive).

With `CC1(C)Oc2cc3oc(C(=O)O)cc(=O)c3cc2-c2ccccc21` the IC50 [6] was > 0.37 µM (active).

For `CCC(CO)Oc1cc(NC(=O)c2ccc(N)cc2)c2ncn(C(C)C)c2c1` (stereo not given), the IC50 [11] was > 66.6 µM (inactive), the IC50 [12] was 64.6 µM (active) and the IC50 [13] was 19.6 µM (active). The IC50 (Prothrombin) was > 100 µM (inactive) and the IC50 [14] was 9.23 µM (active).

In the case of `CCn1c(C)c(C(C)=O)c(NCc2ccccc2)nc1=S`, the AC50 [15] is reported as 11 µM (active).

With `CC1=CC(C)(C)N2C(=O)C3(C(C#N)=C(N)Oc4cc(O)ccc43)c3c(C)c(C)cc1c32` (stereo not given) the IC50 [7] was 29.4 µM (active), the IC50 [9] was 16.5 µM (active) and the EC50 [10] was > 53 µM (inactive).

For `O=S(=O)(NCCc1ccccc1)c1ccc(F)cc1`, the IC50 [2] was 4.22 µM (active), the IC50 (cells [3]) was > 29.9 µM (inactive) and the EC50 (cells [4]) was > 29.9 µM (inactive). The EC50 [5] was 1.37 µM (active).

With `CCc1ccc(N2CN(CCc3ccccc3)CN=C2S)cc1` the IC50 [2] was 9.18 µM (active), the IC50 (cells [3]) was > 29.9 µM (inactive) and the EC50 (cells [4]) was > 29.9 µM (inactive). The EC50 [5] was 2.26 µM (active).

With `CC(=O)c1ccc(NC(=O)CN2CCN(c3ccccc3)CC2)cc1` the AC50 [1] was 8.6 µM (active).

In the case of `CN1CCN(C2Cc3cc(Cl)ccc3Sc3cc(F)ccc32)CC1` (stereo not given), the EC50 [16] is reported as > 120 µM (not active), the AC50 [15] is reported as 18.1 µM (active) and the EC50 [17] is reported as 8.62 µM (active). The EC50 [18] was > 120 µM (not active).
